Measured values: BigSolDB 2.1

O=Cc1ccc(C(=O)O)cc1
solubility (mole fraction)
Conditions	283.15 K	288.15 K	293.15 K	298.15 K	303.15 K	308.15 K	313.15 K	318.15 K	323.15 K
in NMP	0.0654	0.0767	0.0897	0.104	0.121	0.14	0.161	0.184	0.211
in ethanol	0.00815	0.00973	0.0115	0.0134	0.0155	0.0181	0.0211	0.0246	0.028
in isopropanol	0.00498	0.00612	0.00727	0.00867	0.0103	0.0121	0.014	0.0163	0.0185
in methanol	0.00781	0.00899	0.00999	0.0115	0.0129	0.0144	0.0163	0.0178	0.02
in water	2.15e-05	2.83e-05	3.61e-05	4.64e-05	5.91e-05	7.67e-05	9.57e-05	0.00012	0.000148
